Our source for the IC50 and melting point values is US20070167452A1, “Therapeutic amide derivatives” (PFIZER, INC., priority 2004, published 2007).

Read-outs that look alike come from different tables or passages of the source. Bounds are passed on as bounds.

For data set [1], the target named is HERG potassium channel (Homo sapiens, UniProt Q12809). Put plainly: Inhibition at HERG potassium channel (prior-art compound). The note with it: background statement on prior-art compound of WO 0208928.
Sequence of HERG potassium channel (Q12809 whole entry): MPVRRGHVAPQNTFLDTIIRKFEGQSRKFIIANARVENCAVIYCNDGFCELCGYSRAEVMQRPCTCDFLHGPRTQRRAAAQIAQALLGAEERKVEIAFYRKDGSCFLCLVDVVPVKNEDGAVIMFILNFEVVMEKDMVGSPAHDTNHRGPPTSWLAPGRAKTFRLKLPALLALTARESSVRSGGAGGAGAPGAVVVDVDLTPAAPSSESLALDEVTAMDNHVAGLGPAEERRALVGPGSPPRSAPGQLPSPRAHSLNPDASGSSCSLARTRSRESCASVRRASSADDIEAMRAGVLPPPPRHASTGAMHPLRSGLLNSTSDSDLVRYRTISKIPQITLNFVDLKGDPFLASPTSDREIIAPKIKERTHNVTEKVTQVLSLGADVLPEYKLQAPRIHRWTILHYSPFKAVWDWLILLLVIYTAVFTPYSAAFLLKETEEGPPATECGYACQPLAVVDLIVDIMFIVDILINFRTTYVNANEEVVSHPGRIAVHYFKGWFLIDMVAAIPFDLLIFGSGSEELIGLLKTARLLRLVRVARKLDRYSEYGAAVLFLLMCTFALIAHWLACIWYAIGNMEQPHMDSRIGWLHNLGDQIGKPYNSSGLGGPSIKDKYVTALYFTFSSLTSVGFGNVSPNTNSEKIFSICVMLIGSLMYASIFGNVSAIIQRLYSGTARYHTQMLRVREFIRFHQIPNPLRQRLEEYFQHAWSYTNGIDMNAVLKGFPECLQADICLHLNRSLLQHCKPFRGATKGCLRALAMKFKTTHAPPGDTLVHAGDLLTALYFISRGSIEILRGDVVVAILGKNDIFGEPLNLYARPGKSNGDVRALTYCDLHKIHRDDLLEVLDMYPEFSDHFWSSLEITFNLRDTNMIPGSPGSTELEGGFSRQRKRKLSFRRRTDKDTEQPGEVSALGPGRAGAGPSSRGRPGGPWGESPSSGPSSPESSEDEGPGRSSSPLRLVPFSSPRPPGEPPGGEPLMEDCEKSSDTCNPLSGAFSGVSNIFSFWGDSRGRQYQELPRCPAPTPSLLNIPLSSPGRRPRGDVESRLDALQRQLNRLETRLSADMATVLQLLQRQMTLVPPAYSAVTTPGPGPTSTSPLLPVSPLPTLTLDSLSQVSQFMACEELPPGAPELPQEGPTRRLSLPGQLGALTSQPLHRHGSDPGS
For data set [2], the target named is T1, Human HERG (Homo sapiens, UniProt Q12809). Put plainly: Human Dofetilide Binding Assay.
T1 sequence (Q12809 whole entry): as above
Description: (§1) Human HERG transfected HEK293S cells were prepared and grown in-house. The collected cells were suspended in 50 mM Tris-HCl (pH 7.4 at 4° C.) and homogenized using a hand held Polytron PT 1200 disruptor set at full power for 20 sec on ice. The homogenates were centrifuged at 48,000×g at 4° C. for 20 min. The pellets were then resuspended, homogenized, and centrifuged once more in the same manner. The final pellets were resuspended in an appropriate volume of 50 mM Tris-HCl, 10 mM KCl, 1 mM MgCl2 (pH 7.4 at 4° C.), homogenized, aliquoted and stored at −80° C. until use. An aliquot of membrane fractions was used for protein concentration determination using BCA protein assay kit (PIERCE) and ARVOsx plate reader (Wallac).
(§2) Binding assays were conducted in a total volume of 200 μl in 96-well plates. Twenty μl of test compounds were incubated with 20 μl of [^3H]-dofetilide (Amersham, final 5 nM) and 160 μl of membrane homogenate (25 μg protein) for 60 minutes at room temperature. Nonspecific binding was determined by 10 μM dofetilide at the final concentration. Incubation was terminated by rapid vacuum filtration over 0.5% presoaked GF/B Betaplate filter using Skatron cell harvester with 50 mM Tris-HCl, 10 mM KCl, 1 mM MgCl2, pH 7.4 at 4° C. The filters were dried, put into sample bags and filled with Betaplate Scint. Radioactivity bound to filter was counted with Wallac Betaplate counter.
Data set [3] concerns the target T2, NR2B receptor (Rattus norvegicus, UniProt P35439+Q00960).
T2 construct: Membranes were prepared by homogenization of forebrain of male CD rats; from tissue; host or cells: forebrain of male CD rats (P2 membrane)
Description: NR2B Binding Assay. The note with it: forebrain P2 membranes of male CD rats; 5 nM [3H] NR2B ligand. On the procedure: The activity of the cycloalkylene amide compounds of the present invention, as NR2B antagonists, is determined by their ability to inhibit the binding of NR2B subunit at its receptor sites employing radioactive ligands.
The NR^2B antagonist activity of the cycloalkylene amide compounds is evaluated by using the standard assay procedure described in, for example, J. Pharmacol., 331, pp 117-126, 1997. This method essentially involves determining the concentration of the individual compound required to reduce the amount of radiolabelled NR2B ligands by 50% at their receptor sites, thereby affording characteristic IC50 values for each compound tested. More specifically, the assay is carried out as follows.
Membranes were prepared by homogenization of forebrain of male CD rats weighing between 170˜190 g by using glass-Teflon homogenizer in 0.32 M sucrose at 4° C. The crude nuclear pellet was removed by centrifugation at 1000×g for 10 min, and the supernatant centrifuged at 17000×g for 25 min. The resulting pellet was resuspended in 5 mM Tris acetate pH 7.4 at 4° C. for 10 min to lyse cellular particles and again centrifuged at 17000×g. The resulting pellet (P2 membrane) was washed twice in Tris acetate, resuspended at 5.5 mg protein/ml and stored at −20° C. until use. All the manipulation was done on ice, and stock solution and equipment were kept on ice at all time.
For the saturation assay, receptor saturation was determined by incubating [^3H]-1-[(1S*,2S*)-2-hydroxy-2-(4-hydroxyphenyl)-1-methylethyl]-4-phenylpiperidin-4-ol and 50 μg protein of P2 membrane for 60 minutes at room temperature in a final 100 μl of incubation buffer (50 mM Tris HCl, pH7.4). Total and non-specific bindings (in the presence of 10 μM of unlabeled 1-[(1S*,2S*)-2-hydroxy-2-(4-hydroxyphenyl)-1-methylethyl]-4-phenylpiperidin-4-ol) were determined in a range of [^3H]-1-[(1S*,2S*)-2-hydroxy-2-(4-hydroxyphenyl)-1-methylethyl]-4-phenylpiperidin-4-ol concentrations (0.625 nM to 60 nM).
For the competition assay, test compounds were incubated in duplicate with 5 nM [^3H]-1-[(1S*,2S*)-2-hydroxy-2-(4-hydroxyphenyl)-1-methylethyl]-4-phenylpiperidin-4-ol and 50 μg protein of P2 membrane for 60 minutes at room temperature in a final 100 μl of 50 mM Tris HCl buffer (pH7.4). Nonspecific binding was determined by 10 μM of unlabeled 1-[(1S*,2S*)-2-hydroxy-2-(4-hydroxyphenyl)-1-methylethyl]-4-phenylpiperidin-4-ol (25 μl). The saturation derived KD gained in saturation assay was used for all Ki calculations.
All incubations were terminated by rapid vacuum filtration over 0.2% polyethyleneimine soaked Whatman GF/B glass fibre filter paper using a SKATRON cell harvester followed by three washes with ice-cold filtration buffer (5 mM Tris HCl, pH 7.4.). Receptor-bound radioactivity was quantified by liquid scintillation counting using Packard LS counter. Competition assays were performed by counting Wallac GF/B filters on Betaplate scintillation counter (Wallac).

The target in data set [4] is T1, Human HERG.
Description: as §1, §2

T2 sequence (Q00960 27-1482, other chains not shown): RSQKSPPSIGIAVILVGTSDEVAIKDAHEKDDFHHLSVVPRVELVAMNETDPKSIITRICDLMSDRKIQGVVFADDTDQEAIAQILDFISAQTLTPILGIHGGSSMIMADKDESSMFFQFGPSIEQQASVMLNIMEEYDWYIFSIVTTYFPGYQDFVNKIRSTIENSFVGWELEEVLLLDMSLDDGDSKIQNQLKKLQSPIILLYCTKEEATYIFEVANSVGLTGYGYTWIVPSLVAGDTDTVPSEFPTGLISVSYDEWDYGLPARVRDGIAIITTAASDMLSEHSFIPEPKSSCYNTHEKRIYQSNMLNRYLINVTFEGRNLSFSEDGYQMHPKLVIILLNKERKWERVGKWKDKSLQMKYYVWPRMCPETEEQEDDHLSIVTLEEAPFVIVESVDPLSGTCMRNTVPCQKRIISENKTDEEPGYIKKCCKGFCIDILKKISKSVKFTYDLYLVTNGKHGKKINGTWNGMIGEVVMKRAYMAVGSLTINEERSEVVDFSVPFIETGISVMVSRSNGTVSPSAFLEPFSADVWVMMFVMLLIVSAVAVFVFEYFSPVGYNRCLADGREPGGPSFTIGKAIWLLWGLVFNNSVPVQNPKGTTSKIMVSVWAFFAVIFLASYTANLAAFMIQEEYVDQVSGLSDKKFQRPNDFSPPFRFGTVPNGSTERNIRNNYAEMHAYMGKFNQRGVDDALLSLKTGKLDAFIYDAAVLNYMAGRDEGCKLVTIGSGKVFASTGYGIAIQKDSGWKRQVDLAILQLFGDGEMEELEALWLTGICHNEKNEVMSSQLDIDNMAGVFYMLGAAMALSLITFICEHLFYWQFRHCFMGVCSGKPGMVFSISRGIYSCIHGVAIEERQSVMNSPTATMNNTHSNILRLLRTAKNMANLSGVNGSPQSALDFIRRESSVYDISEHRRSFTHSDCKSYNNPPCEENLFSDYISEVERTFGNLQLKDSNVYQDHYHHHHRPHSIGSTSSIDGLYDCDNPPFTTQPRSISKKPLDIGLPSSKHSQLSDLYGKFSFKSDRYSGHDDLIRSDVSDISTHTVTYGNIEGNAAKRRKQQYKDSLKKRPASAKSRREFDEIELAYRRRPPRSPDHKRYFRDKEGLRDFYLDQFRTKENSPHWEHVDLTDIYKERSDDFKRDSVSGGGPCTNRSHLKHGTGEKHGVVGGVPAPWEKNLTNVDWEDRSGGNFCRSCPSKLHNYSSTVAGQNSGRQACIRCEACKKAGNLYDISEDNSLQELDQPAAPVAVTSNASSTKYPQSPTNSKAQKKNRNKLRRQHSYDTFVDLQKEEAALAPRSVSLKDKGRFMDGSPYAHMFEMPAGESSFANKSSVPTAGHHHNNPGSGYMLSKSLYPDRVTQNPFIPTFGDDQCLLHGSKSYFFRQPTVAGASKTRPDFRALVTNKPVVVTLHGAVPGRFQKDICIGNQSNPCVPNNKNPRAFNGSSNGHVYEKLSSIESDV

In data set [1], `O=C(NCC1CCN(CCCc2ccccc2)CC1)c1ccc(O)cc1` [Compound (i)] returned an IC50 below 3000 nM.

In the case of `O=C(NC[C@]1(O)CC[C@H](OCc2ccccc2F)CC1)c1ccc(O)cc1` [Example 48, N-({trans-4-[(2-Fluorobenzyl)oxy]-1-hydroxycyclohexyl}methyl)-4-hydroxybenzamide], the melting point was 162.9 °C. This compound also had an IC50 in data set [2] above 100000 nM. In addition, the IC50 in data set [3] was determined as 25.5 nM.

In the case of `O=C(NCC1(O)CCC(COCc2cccc(F)c2)CC1)c1ccc(O)c(F)c1` (stereo not drawn) [Example 50, 3-Fluoro-N-[(trans-4-{[(3-fluorobenzyl)oxy]methyl}-1-1-hydroxycyclohexyl)methyl]-hydroxybenzamide], the 50% inhibitory concentration (IC50) in data set [3] is 27.5 nM; in data set [4], above 100000 nM.

`O=C(NC[C@]1(O)CC[C@H](CCOc2ccccc2F)CC1)c1cn[nH]c1` [Example 56, N-({trans-4-[2-(2-Fluorophenoxy)ethyl]-1-hydroxycyclohexyl}methyl)-1H-pyrazole-4-carboxamide] had a melting point of 175.1 °C. The compound further returned an IC50 in data set [2] above 100000 nM. Besides, the IC50 in data set [3] turned out to be 30.2 nM.

Turning to `O=C(NC[C@]1(O)CC[C@H](COCc2ccccc2)CC1)c1ccc(O)c(F)c1` [Example 60, N-({trans-4-[(Benzyloxy)methyl]-1-hydroxycyclohexyl}methyl)-3-fluoro-4-hydoxybenzamide], the melting point came out at 162.5 °C. The same compound displayed an IC50 in data set [2] above 100000 nM. In data set [3], this compound gave an IC50 of 18.2 nM.

Compound `O=C(NC[C@]1(O)CC[C@H](COc2ccccc2)CC1)c1ccc(O)c(F)c1` [Example 62, 3-Fluoro-4-hydroxy-N-{[trans-1-hydroxy-4-(phenoxymethyl)cyclohexyl]methyl}benzamide] came in with a melting point of 183.5 °C. For the same compound, in data set [2], the IC50 was above 30000 nM. In addition, the IC50 in data set [3] came out at 9.1 nM.

Regarding `O=C(NC[C@]1(O)CC[C@H](CCOc2ccccc2)CC1)c1ccc(O)c(F)c1` [Example 63, 3-Fluoro-4-hydroxy-N-{[trans-1-hydroxy-4-(2-phenoxyethyl)cyclohexyl]methyl}benzamide], the melting point stood at 164 °C. For the same compound, in data set [2], the IC50 was above 30000 nM. The IC50 in data set [3] worked out at 6.2 nM.

`O=C(NC[C@]1(O)CC[C@H](COCc2ccc(F)cc2)CC1)c1ccc(O)c(F)c1` [Example 64, 3-Fluoro-N-[(trans-4-{[(4-fluorobenzyl)oxy]methyl}-1-hydroxycyclohexyl)methyl]-4-hydroxybenzamide]: the melting point is 155.9 °C. In data set [2], the IC50 is above 100000 nM. The compound further returned an IC50 in data set [3] of 26.5 nM.

Consider `O=C(NC[C@]1(O)CC[C@H](COc2ccc(F)cc2)CC1)c1ccc(O)c(F)c1` [Example 66, 3-Fluoro-N-({trans-4-[(4-fluorophenoxy)methyl]-1-hydroxycyclohexyl}methyl)-4-hydroxybenzamide], for which the melting point is 181.6 °C. The compound further displayed an IC50 in data set [2] above 100000 nM. The compound further showed an IC50 in data set [3] of 12.6 nM.

`Cc1ccc(OC[C@H]2CC[C@@](O)(CNC(=O)c3ccc(O)cc3)CC2)nc1` [Example 67, 4-Hydroxy-N-[(trans-1-hydroxy-4-{[(5-methylpyridin-2-yl)oxy]methyl}cyclohexyl)methyl]benzamide]: the melting point was found to be 196.2 °C. The IC50 in data set [2] is above 30000 nM. The compound further gave an IC50 in data set [3] of 16.9 nM.

For `O=C(NC[C@H]1CC[C@@H](OCCc2ccccc2)CC1)c1ccc(O)nc1` [Example 71, 6-Hydroxy-N-{[cis-4-(2-phenethoxy)cyclohexyl]methyl}nicotinamide], the values for the IC50 in data set [3] and in data set [4] were 7.1 nM and above 100000 nM, respectively.

`O=C(NC[C@H]1CC[C@@H](COc2ccccc2)CC1)c1cn[nH]c1` [Example 73, N-{[cis-4-(Phenoxymethyl)cyclohexyl]methyl}-1H-pyrazole-4-carboxamide] returned a melting point of 150.1 °C. Besides, the IC50 in data set [2] was above 30000 nM. The IC50 in data set [3] came out at 15.4 nM.
